Results as given in the supplement of paper PMC11579375.

Key:
Assay in all cases: area under the viability dose-response curve (AUC) (AUC (arbitrary units, max 500 = no viability loss)); higher = less sensitive (higher viability)
Settings in all cases: exposure time: 120 h; concentration range: 0.1 nM - 10 µM, 6 doses
10F2 = tested on: 10F2 (fetal-II hepatoblastoma organoid with high liver markers)
Description: (§1)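 Patient-derived hepatoblastoma tumor organoids (about 50 organoids per well, 384-well plates, medium with 5% BME) were treated with the PMC pediatric cancer drug library. Each drug was tested in duplicate at 6 concentrations (0.1 nM to 10 µM, 10-fold steps).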

135F2 = tested on: 135F2 (fetal-II hepatoblastoma organoid with high liver markers)
Description: as §1

13E = tested on: 13E (embryonal-type hepatoblastoma organoid)
Description: as §1

13F2 = tested on: 13F2 (fetal-II hepatoblastoma organoid with high liver markers)
Description: as §1

17E = tested on: 17E (embryonal-type hepatoblastoma organoid)
Description: as §1

17F1 = tested on: 17F1 (fetal-I hepatoblastoma organoid with intermediate liver markers)
Description: as §1

22E = tested on: 22E (embryonal-type hepatoblastoma organoid)
Description: as §1

27F1 = tested on: 27F1 (fetal-I hepatoblastoma organoid with intermediate liver markers)
Description: as §1

3E = tested on: 3E (embryonal-type hepatoblastoma organoid)
Description: as §1

8F1 = tested on: 8F1 (fetal-I hepatoblastoma organoid with intermediate liver markers)
Description: as §1

96F1 = tested on: 96F1 (fetal-I hepatoblastoma organoid with intermediate liver markers)
Description: as §1

Structure (SMILES)	area under the viability dose-response curve (10F2)	area under the viability dose-response curve (135F2)	area under the viability dose-response curve (13E)	area under the viability dose-response curve (13F2)	area under the viability dose-response curve (17E)	area under the viability dose-response curve (17F1)	area under the viability dose-response curve (22E)	area under the viability dose-response curve (27F1)	area under the viability dose-response curve (3E)	area under the viability dose-response curve (8F1)	area under the viability dose-response curve (96F1)
NC1(c2ccc(-c3nc4ccn5c(=O)[nH]nc5c4cc3-c3ccccc3)cc2)CCC1 [MK-2206]	445	462	415	395	377	473	440	459	371	431	427
CNC(=O)c1cc(Oc2ccc(NC(=O)Nc3ccc(Cl)c(C(F)(F)F)c3)cc2)ccn1 [Sorafenib]	443	431	454	440	437	448	452	458	448	453	459
Cc1c(C(=O)Nc2ccc(N3C[C@@H](C)O[C@@H](C)C3)nc2)cccc1-c1ccc(OC(F)(F)F)cc1 [Sonidegib]	409	470	485	470	466	477	469	> 500	477	477	465
C[C@@H]1C[C@H]2[C@@H]3CCC4=CC(=O)C=C[C@]4(C)[C@@]3(F)[C@@H](O)C[C@]2(C)[C@@]1(O)C(=O)CO [Dexamethasone]	> 500	472	473	494	> 500	477	497	> 500	> 500	484	> 500
CC(C)(C)c1cc(NC(=O)Nc2ccc(-c3cn4c(n3)sc3cc(OCCN5CCOCC5)ccc34)cc2)no1 [Quizartinib]	474	489	> 500	485	432	471	484	> 500	> 500	494	489
C=CC(=O)Nc1cc(Nc2nccc(-c3cn(C)c4ccccc34)n2)c(OC)cc1N(C)CCN(C)C [Osimertinib]	335	442	424	364	448	468	423	380	378	490	449
CC1(C)CCC2(CC1)N[C@@H](C(=O)N[C@@H]1CC[C@@H](C(N)=O)OC1)[C@H](c1ccnc(Cl)c1F)[C@]21C(=O)Nc2cc(Cl)ccc21 [Milademetan]	268	341	370	256	294	376	406	357	313	367	399
COc1ccc(-c2ccc3c(N4CCOC[C@@H]4C)nc(N4CCOC[C@@H]4C)nc3n2)cc1CO [AZD8055]	259	342	366	278	331	456	396	468	316	466	445
CS(=O)(=O)CCNCc1ccc(-c2ccc3ncnc(Nc4ccc(OCc5cccc(F)c5)c(Cl)c4)c3c2)o1 [Lapatinib]	336	474	483	388	482	459	463	416	464	495	445
COc1cc(Nc2ncc3c(n2)-c2ccc(Cl)cc2C(c2c(F)cccc2OC)=NC3)ccc1C(=O)O [Alisertib]	325	369	381	310	339	494	382	436	328	473	416
CN/N=N/c1[nH]cnc1C(N)=O [MTIC]	445	> 500	> 500	443	> 500	> 500	> 500	> 500	> 500	> 500	> 500
CN(C)C/C=C/C(=O)Nc1ccc(C(=O)Nc2cccc(Nc3ncc(Cl)c(-c4c[nH]c5ccccc45)n3)c2)cc1 [THZ1]	256	314	291	276	281	371	241	435	223	410	343
O=C(c1ccc(F)c(F)c1Nc1ccc(I)cc1F)N1CC(O)([C@@H]2CCCCN2)C1 [Cobimetinib]	220	300	429	266	362	438	448	381	372	455	430
C[C@@H]1CN(C(=O)c2ccc(NC(=O)c3cc(O[C@H](C)c4c(Cl)ccc(F)c4Cl)c(N)nn3)cc2)C[C@H](C)N1 [Ensartinib]	449	449	422	410	411	483	393	468	403	444	456
C[C@H](NC(=O)CCC(F)(F)F)C(=O)N[C@@H]1C(=O)N(CCO)c2ncccc2-c2ccccc21 [Crenigacestat]	389	479	482	418	482	> 500	474	484	458	498	480
CC(C)c1cc(-c2n[nH]c(=O)n2-c2ccc3c(ccn3C)c2)c(O)cc1O [Ganetespib]	236	340	269	243	232	343	345	278	265	265	358
Cc1c(Cn2c(C)nc3c(C(=O)O)cc(N4CCOCC4)cc32)cccc1C(F)(F)F	500	> 500	488	488	495	498	495	498	499	> 500	497

Structure (SMILES)	area under the viability dose-response curve (10F2)	area under the viability dose-response curve (135F2)	area under the viability dose-response curve (13E)	area under the viability dose-response curve (13F2)	area under the viability dose-response curve (17E)	area under the viability dose-response curve (17F1)	area under the viability dose-response curve (22E)	area under the viability dose-response curve (27F1)	area under the viability dose-response curve (3E)	area under the viability dose-response curve (8F1)	area under the viability dose-response curve (96F1)
Nc1cc(C(F)(F)F)c(-c2cc(N3CCOCC3)nc(N3CCOCC3)n2)cn1 [Buparlisib]	385	440	413	413	416	454	425	436	383	447	449
O=c1cc(-c2cccc3c2Sc2ccccc2S3)oc(N2CCOCC2)c1	455	> 500	498	500	498	> 500	497	> 500	490	> 500	> 500
N#CCNC(=O)c1ccc(-c2ccnc(Nc3ccc(N4CCOCC4)cc3)n2)cc1 [Momelotinib]	442	462	471	443	444	489	489	496	462	479	465
CNCc1ccc(-c2[nH]c3cc(F)cc4c3c2CCNC4=O)cc1 [Rucaparib]	446	452	484	458	489	489	475	> 500	490	476	> 500
CC[C@@]1(O)C(=O)OCc2c1cc1n(c2=O)Cc2cc3ccccc3nc2-1 [Camptothecin]	219	227	304	174	263	277	361	255	201	295	208
C[C@H](NC(=O)Cc1cc(F)cc(F)c1)C(=O)N[C@@H]1C(=O)N(C)c2ccccc2-c2ccccc21	392	472	472	388	430	478	493	441	406	456	497
C[C@@H]1CN(CC(=O)Nc2ccc3c(c2)Cc2cccc(-c4cc(=O)cc(N5CCOCC5)o4)c2S3)C[C@H](C)O1	430	470	493	484	457	> 500	461	456	> 500	> 500	480
Nc1ncccc1-c1nc2ccc(-c3ccccc3)nc2n1-c1ccc(C2(N)CCC2)cc1 [Miransertib]	446	429	421	422	365	494	387	447	338	428	433
C[C@@H]1COCCN1c1cc(C2([S@](C)(=N)=O)CC2)nc(-c2cc[nH]c3nccc2-3)n1 [Ceralasertib]	475	448	468	450	462	478	462	479	442	> 500	450
CN[C@@H](C)C(=O)N[C@H]1CN(C(=O)CC(C)C)CC[C@H]2CC[C@@H](C(=O)NC(c3ccccc3)c3ccccc3)N2C1=O [Xevinapant]	445	> 500	484	498	454	489	301	> 500	351	496	> 500
COCCNCc1ccc(-c2cc3nccc(Oc4ccc(NC(=O)C5(C(=O)Nc6ccc(F)cc6)CC5)cc4F)c3s2)nc1 [Sitravatinib]	374	432	436	425	375	457	431	442	417	441	433
CO[C@H]1C[C@@H]2CC[C@@H](C)[C@@](O)(O2)C(=O)C(=O)N2CCCC[C@H]2C(=O)O[C@H]([C@H](C)C[C@@H]2CC[C@@H](OCCO)[C@H](OC)C2)CC(=O)[C@H](C)/C=C(\C)[C@@H](O)[C@@H](OC)C(=O)[C@H](C)C[C@H](C)/C=C/C=C/C=C/1C [Everolimus]	373	453	393	327	334	494	356	> 500	303	467	464
C#Cc1cccc(Nc2ncnc3cc4c(cc23)OCCOCCOCCO4)c1 [Icotinib]	376	474	497	406	487	465	> 500	442	474	495	464
C[C@]1(O)C[C@@H](c2nc(-c3ccc4ccc(-c5ccccc5)nc4c3)c3c(N)nccn32)C1 [Linsitinib]	467	487	405	410	384	492	391	476	374	484	454
Nc1ncn([C@H]2C[C@H](O)[C@@H](CO)O2)c(=O)n1 [Decitabine (Guadecitabine)]	375	440	485	392	461	466	477	487	453	478	455
CS(=O)(=O)N1CCN(Cc2cc3nc(-c4cccc5[nH]ncc45)nc(N4CCOCC4)c3s2)CC1 [Pictilisib]	391	411	413	365	350	493	404	376	380	482	422
